ChEMBL document CHEMBL1136587, “Optimisation of aryl substitution leading to potent methionyl tRNA synthetase inhibitors with excellent gram-positive antibacterial activity” (Bioorg Med Chem Lett, 2003)
≈ marks a conversion by molar mass, not a printed value.

How the values were obtained:
[1] = tested on: Enterococcus faecalis; assay: In vitro Antibacterial activity of compound against Enterococcus faecalis 1; format: functional
[2] = tested on: Staphylococcus aureus; assay: In vitro Antibacterial activity of compound against Staphylococcus aureus Oxford; format: functional
[3] = molecular target: Methionine--tRNA ligase (Enterococcus faecalis (strain ATCC 700802 / V583)) (UniProt Q837B3); assay: In vitro Antibacterial activity of compound against Enterococcus faecalis; format: functional
Sequence of Methionine--tRNA ligase (Enterococcus faecalis (strain ATCC 700802 / V583)) (Q837B3 whole entry): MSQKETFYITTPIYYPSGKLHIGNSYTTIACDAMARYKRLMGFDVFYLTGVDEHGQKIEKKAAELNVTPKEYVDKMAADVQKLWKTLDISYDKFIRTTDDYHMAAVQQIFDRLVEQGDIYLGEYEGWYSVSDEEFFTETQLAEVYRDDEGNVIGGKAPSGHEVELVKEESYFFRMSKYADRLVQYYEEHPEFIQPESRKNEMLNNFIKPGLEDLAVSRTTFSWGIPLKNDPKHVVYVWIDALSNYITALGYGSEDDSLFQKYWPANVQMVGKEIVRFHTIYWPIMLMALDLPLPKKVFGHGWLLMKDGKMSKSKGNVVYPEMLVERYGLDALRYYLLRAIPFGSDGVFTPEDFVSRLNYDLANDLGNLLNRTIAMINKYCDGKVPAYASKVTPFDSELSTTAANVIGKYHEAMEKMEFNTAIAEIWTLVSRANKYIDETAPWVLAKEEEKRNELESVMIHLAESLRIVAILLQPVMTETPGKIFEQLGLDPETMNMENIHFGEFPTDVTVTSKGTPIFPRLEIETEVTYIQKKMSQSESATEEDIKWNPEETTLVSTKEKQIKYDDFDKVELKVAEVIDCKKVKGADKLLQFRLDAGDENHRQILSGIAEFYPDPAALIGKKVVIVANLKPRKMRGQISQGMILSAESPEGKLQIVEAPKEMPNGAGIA

[4] = tested on: Enterococcus faecium; assay: In vitro Antibacterial activity of compound against Enterococcus faecium
[5] = tested on: Staphylococcus aureus; assay: In vitro Antibacterial activity of compound against Staphylococcus aureus
[6] = tested on: Staphylococcus epidermidis; assay: In vitro Antibacterial activity of compound against Staphylococcus epidermidis
[7] = molecular target: Methionine--tRNA ligase (Enterococcus faecalis (strain ATCC 700802 / V583)) (UniProt Q837B3); assay: In vitro Antibacterial activity of compound against Enterococcus faecalis 7; format: functional

MIC [1] [µg/mL]	MIC [2] [µg/mL]	SMILES	other results
< 0.06	0.25 (≈ 0.537 µM)	Oc1cc(NCCCNCc2cc(Br)cc(Br)c2)nc2ccccc12	–
< 0.06	< 0.06	CCOc1c(Br)cc(I)cc1CNCCCNc1cc(O)c2ccccc2n1	–
2 (≈ 4.06 µM)	4 (≈ 8.12 µM)	CCOc1c(Br)cc([S+](C)[O-])cc1CNCCCNc1cc(O)c2ccccc2n1 (stereo not given)	–
< 0.06	0.25 (≈ 0.498 µM)	CCc1cc(I)c2c(c1)C(NCCCNc1cc(=O)c3ccccc3[nH]1)CCN2 (stereo not given)	MIC90 [3]: 0.25 µg/mL (≈ 0.498 µM); MIC90 [4]: 0.06 µg/mL (≈ 0.119 µM); MIC90 [5]: 1 µg/mL (≈ 1.99 µM); MIC90 [6]: 1 µg/mL (≈ 1.99 µM)
< 0.06	0.13 (≈ 0.311 µM)	Oc1cc(NCCCNC2CCNc3c(Cl)cc(Cl)cc32)nc2ccccc12 (stereo not given)	–
0.13 (≈ 0.263 µM)	0.5 (≈ 1.01 µM)	CNc1c(Br)cc(Br)cc1CNCCCNc1cc(O)c2ccccc2n1	–
–	4 (≈ 10.6 µM)	Oc1cc(NCCCNCc2ccc(Cl)cc2Cl)nc2ccccc12	MIC [7]: 4 µg/mL (≈ 10.6 µM)
< 0.06	1 (≈ 1.97 µM)	CCNc1c(Br)cc(Br)cc1CNCCCNc1cc(O)c2ccccc2n1	–
< 0.06	0.25 (≈ 0.601 µM)	CCOc1c(Cl)cc(OC)cc1CNCCCNc1cc(O)c2ccccc2n1	–
< 0.06	< 0.06	CCOc1c(C)cc(I)cc1CNCCCNc1cc(O)c2ccccc2n1	–
> 64	> 64	CCOc1c(I)cc(CO)cc1CNCCCNc1cc(O)c2ccccc2n1	–
< 0.06	0.25 (≈ 0.6 µM)	Oc1cc(NCCCNC2CCCc3c(Cl)cc(Cl)cc32)nc2ccccc12 (stereo not given)	–
< 0.06	< 0.06	Oc1cc(NCCCNC2CCNc3c(Br)cc(Br)cc32)nc2ccccc12 (stereo not given)	MIC90 [3]: 0.03 µg/mL (≈ 0.0593 µM); MIC90 [4]: < 0.016 µg/mL; MIC90 [5]: 0.5 µg/mL (≈ 0.988 µM); MIC90 [6]: 0.5 µg/mL (≈ 0.988 µM)
0.13 (≈ 0.256 µM)	0.5 (≈ 0.985 µM)	CCOc1c(I)cc(OC)cc1CNCCCNc1cc(O)c2ccccc2n1	–
32 (≈ 63.1 µM)	32 (≈ 63.1 µM)	CCOc1c(CO)cc(I)cc1CNCCCNc1cc(O)c2ccccc2n1	–
< 0.06	0.25 (≈ 0.625 µM)	CCOc1c(C)cc(Cl)cc1CNCCCNc1cc(O)c2ccccc2n1	–
< 0.06	< 0.06	CCOc1c(Br)cc(SC)cc1CNCCCNc1cc(O)c2ccccc2n1	MIC90 [3]: 0.5 µg/mL (≈ 1.05 µM); MIC90 [4]: 0.5 µg/mL (≈ 1.05 µM); MIC90 [5]: 0.25 µg/mL (≈ 0.525 µM); MIC90 [6]: 0.25 µg/mL (≈ 0.525 µM)
< 0.06	0.5 (≈ 1.13 µM)	Cc1cc(Br)cc2c1NCCC2NCCCNc1cc(O)c2ccccc2n1 (stereo not given)	–
8 (≈ 14.6 µM)	32 (≈ 58.2 µM)	CCOC(=O)c1cc(I)c(OCC)c(CNCCCNc2cc(O)c3ccccc3n2)c1	–
< 0.06	0.13 (≈ 0.293 µM)	CCOc1c(C)cc(Br)cc1CNCCCNc1cc(O)c2ccccc2n1	–
0.25 (≈ 0.577 µM)	0.5 (≈ 1.15 µM)	CCOc1c(C)cc(C(F)(F)F)cc1CNCCCNc1cc(=O)c2ccccc2[nH]1	–
< 0.06	0.13 (≈ 0.282 µM)	CCOc1c(Br)cc(OC)cc1CNCCCNc1cc(O)c2ccccc2n1	MIC90 [3]: 0.06 µg/mL (≈ 0.13 µM); MIC90 [4]: 0.03 µg/mL (≈ 0.0652 µM); MIC90 [5]: 2 µg/mL (≈ 4.34 µM); MIC90 [6]: 2 µg/mL (≈ 4.34 µM)

MIC [1] [µg/mL]	MIC [2] [µg/mL]	SMILES	other results
< 0.06	0.25 (≈ 0.621 µM)	Oc1cc(NCCCNC2CCc3c(Cl)cc(Cl)cc32)nc2ccccc12 (stereo not given)	–
< 0.06	< 0.06	Oc1cc(NCCCNC2CCNc3c(Br)cc(Cl)cc32)nc2ccccc12 (stereo not given)	MIC90 [3]: 0.06 µg/mL (≈ 0.13 µM); MIC90 [4]: < 0.016 µg/mL; MIC90 [5]: 1 µg/mL (≈ 2.17 µM); MIC90 [6]: 1 µg/mL (≈ 2.17 µM)
4 (≈ 8.43 µM)	8 (≈ 16.9 µM)	CCOc1cc(Br)c(OCC)c(CNCCCNc2cc(O)c3ccccc3n2)c1	–
< 0.06	< 0.06	O=c1cc(NCCCNC2CCOc3c(Br)cc(Br)cc32)[nH]c2ccccc12 (stereo not given)	–
8 (≈ 15.3 µM)	16 (≈ 30.7 µM)	CCOc1c(CNCCCNc2cc(O)c3ccccc3n2)cc(I)cc1COC	–
< 0.06	0.25 (≈ 0.444 µM)	Oc1cc(NCCCNCc2cc(Br)cc(Br)c2OCC(F)(F)F)nc2ccccc12	–
< 0.06	2 (≈ 3.94 µM)	CCOc1c(CNCCCNc2cc(O)c3ccccc3n2)cc(I)cc1OC	–
< 0.06	0.25 (≈ 0.549 µM)	CCc1cc(Br)cc2c1NCCC2NCCCNc1cc(O)c2ccccc2n1 (stereo not given)	–
< 0.06	< 0.06	CCOc1c(C)cc(SC)cc1CNCCCNc1cc(O)c2ccccc2n1	–
4 (≈ 10.2 µM)	8 (≈ 20.5 µM)	CCOc1c(C)cc(C#N)cc1CNCCCNc1cc(O)c2ccccc2n1	–
< 0.06	0.13 (≈ 0.309 µM)	CCOc1c(Cl)cc(Cl)cc1CNCCCNc1cc(O)c2ccccc2n1	MIC90 [3]: 0.06 µg/mL (≈ 0.143 µM); MIC90 [4]: < 0.016 µg/mL; MIC90 [5]: 2 µg/mL (≈ 4.76 µM); MIC90 [6]: 2 µg/mL (≈ 4.76 µM)
8 (≈ 14.6 µM)	32 (≈ 58.2 µM)	CCOC(=O)c1cc(I)cc(CNCCCNc2cc(O)c3ccccc3n2)c1OCC	–
1 (≈ 1.93 µM)	0.13 (≈ 0.251 µM)	C=CCc1cc(I)cc(CNCCCNc2cc(O)c3ccccc3n2)c1OCC	–
–	2 (≈ 4.6 µM)	CC(C)Oc1c(Cl)cc(Cl)cc1CNCCCNc1cc(O)c2ccccc2n1	MIC [7]: 0.5 µg/mL (≈ 1.15 µM)
< 0.06	< 0.06	O=c1cc(NCCCNC2CCOc3c(I)cc(Cl)cc32)[nH]c2ccccc12 (stereo not given)	MIC90 [5]: 0.25 µg/mL (≈ 0.49 µM); MIC90 [6]: 0.25 µg/mL (≈ 0.49 µM)
< 0.06	0.13 (≈ 0.255 µM)	Oc1cc(NCCCNC2CCOc3c(Cl)cc(I)cc32)nc2ccccc12 (stereo not given)	–
< 0.06	0.13 (≈ 0.311 µM)	O=c1cc(NCCCNC2CCOc3c(Cl)cc(Cl)cc32)[nH]c2ccccc12 (stereo not given)	–
2 (≈ 4.34 µM)	4 (≈ 8.69 µM)	CCOc1c(CNCCCNc2cc(O)c3ccccc3n2)cc(Br)cc1OC	–
> 64	> 64	Oc1cc(NCCCSCc2ccc(Cl)c(Cl)c2)nc2ccccc12	–
< 0.06	< 0.06	CCOc1c(I)cc(I)cc1CNCCCNc1cc(O)c2ccccc2n1	–
–	0.25 (≈ 0.609 µM)	Oc1cc(NCCCNCc2cc(Cl)cc(Cl)c2Cl)nc2ccccc12	MIC [7]: < 0.06 µg/mL
0.5 (≈ 1.02 µM)	2 (≈ 4.07 µM)	CCOc1c(I)cc(C)cc1CNCCCNc1cc(O)c2ccccc2n1	–

MIC [1] [µg/mL]	MIC [2] [µg/mL]	SMILES	other results
–	8 (≈ 21.3 µM)	Oc1cc(NCCCNCc2cccc(Cl)c2Cl)nc2ccccc12	MIC [7]: 2 µg/mL (≈ 5.32 µM)
< 0.06	< 0.06	Oc1cc(NCCCNCc2cc(Br)cc(I)c2)nc2ccccc12	–
> 64	> 64	Oc1cc(NCCCOCc2ccc(Cl)c(Cl)c2)nc2ccccc12	–
< 0.06	< 0.06	CCOc1c(I)cc(Br)cc1CNCCCNc1cc(O)c2ccccc2n1	–
16 (≈ 42.5 µM)	4 (≈ 10.6 µM)	Oc1cc(NCCCNCc2cc(Cl)ccc2Cl)nc2ccccc12	–
0.25 (≈ 0.549 µM)	0.5 (≈ 1.1 µM)	CCOc1c(C#N)cc(Br)cc1CNCCCNc1cc(O)c2ccccc2n1	–
> 64	> 64	O=C(NCCCNc1cc(O)c2ccccc2n1)c1ccc(Cl)c(Cl)c1	–
0.25 (≈ 0.563 µM)	2 (≈ 4.5 µM)	CCOc1c(Br)cc(C)cc1CNCCCNc1cc(O)c2ccccc2n1	–
< 0.06	< 0.06	CCOc1c(Br)cc(Br)cc1CNCCCNc1cc(O)c2ccccc2n1	–
1 (≈ 2.1 µM)	0.5 (≈ 1.05 µM)	CCOc1c(CNCCCNc2cc(O)c3ccccc3n2)cc(Br)cc1SC	–
< 0.06	0.13 (≈ 0.271 µM)	Nc1c(Br)cc(Br)cc1CNCCCNc1cc(O)c2ccccc2n1	–
< 0.06	< 0.06	Oc1cc(NCCCNCc2cc(I)cc(I)c2)nc2ccccc12	–
1 (≈ 2.2 µM)	4 (≈ 8.78 µM)	CCOc1c(Br)cc(C#N)cc1CNCCCNc1cc(O)c2ccccc2n1	–
< 0.06	0.5 (≈ 1.16 µM)	C=CCOc1c(Cl)cc(Cl)cc1CNCCCNc1cc(O)c2ccccc2n1	–
2 (≈ 3.84 µM)	8 (≈ 15.3 µM)	CCOc1c(I)cc(COC)cc1CNCCCNc1cc(O)c2ccccc2n1	–
0.13 (≈ 0.345 µM)	1 (≈ 2.66 µM)	Oc1cc(NCCCNCc2cc(Cl)cc(Cl)c2)nc2ccccc12	–
8 (≈ 15 µM)	32 (≈ 60 µM)	CCOc1c(CNCCCNc2cc(=O)c3ccccc3[nH]2)cc(I)cc1C(C)(C)C	–
< 0.06	< 0.06	Oc1cc(NCCCNC2CCNc3c(Cl)cc(Br)cc32)nc2ccccc12 (stereo not given)	–
0.25 (≈ 0.566 µM)	1 (≈ 2.27 µM)	Cc1cc(Br)c2c(c1)C(NCCCNc1cc(O)c3ccccc3n1)CCN2 (stereo not given)	–
0.125 (≈ 0.309 µM)	2 (≈ 4.95 µM)	Oc1cc(NCCCNC2COc3c(Cl)cc(Cl)cc32)nc2ccccc12 (stereo not given)	–
8 (≈ 15.7 µM)	> 64	CCOc1c(Br)cc(S(C)(=O)=O)cc1CNCCCNc1cc(O)c2ccccc2n1	–
> 64	> 64	Oc1cc(NCCCNCc2ccccc2)nc2ccccc12	–

SMILES	MIC [1] [µg/mL]	MIC [2] [µg/mL]	other results
O=c1cc(NCCCNCc2ccc(Cl)c(Cl)c2)[nH]c2ccccc12	2 (≈ 5.32 µM)	4 (≈ 10.6 µM)	–
